Experimental findings from publication PMC3265452 (PLoS Neglected Tropical Diseases, 2012) are described below.

The EC50 is the concentration that produces a half-maximal response. In general, inhibition refers to how much of the control response was suppressed. In general, LC50 refers to the concentration that kills 50% of the test population. The IC50 is the concentration that gives 50% inhibition.

In test [1] the target is T1, AaDOP1 (Aedes aegypti, UniProt H6D5H1). In words: CRELuc reporter dose-response in HEK293 cells stably expressing AaDOP1. It is filed as cell-based.
T1 sequence (H6D5H1 entry or part of it): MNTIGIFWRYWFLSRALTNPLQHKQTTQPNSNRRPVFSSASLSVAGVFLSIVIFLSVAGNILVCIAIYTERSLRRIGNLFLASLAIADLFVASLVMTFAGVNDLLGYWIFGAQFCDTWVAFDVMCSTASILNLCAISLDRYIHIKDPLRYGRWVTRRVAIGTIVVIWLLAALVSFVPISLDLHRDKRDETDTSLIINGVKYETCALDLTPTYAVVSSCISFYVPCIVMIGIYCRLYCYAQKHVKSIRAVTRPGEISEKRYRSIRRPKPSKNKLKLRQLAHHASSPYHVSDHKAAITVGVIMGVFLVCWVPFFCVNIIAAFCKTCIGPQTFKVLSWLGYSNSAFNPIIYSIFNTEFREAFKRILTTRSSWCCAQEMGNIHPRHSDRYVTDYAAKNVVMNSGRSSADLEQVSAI
In test [2] the target is T2, AaDOP2 (Aedes aegypti, UniProt H6D5H2). Briefly: cell-based.
T2 sequence (H6D5H2 1-476): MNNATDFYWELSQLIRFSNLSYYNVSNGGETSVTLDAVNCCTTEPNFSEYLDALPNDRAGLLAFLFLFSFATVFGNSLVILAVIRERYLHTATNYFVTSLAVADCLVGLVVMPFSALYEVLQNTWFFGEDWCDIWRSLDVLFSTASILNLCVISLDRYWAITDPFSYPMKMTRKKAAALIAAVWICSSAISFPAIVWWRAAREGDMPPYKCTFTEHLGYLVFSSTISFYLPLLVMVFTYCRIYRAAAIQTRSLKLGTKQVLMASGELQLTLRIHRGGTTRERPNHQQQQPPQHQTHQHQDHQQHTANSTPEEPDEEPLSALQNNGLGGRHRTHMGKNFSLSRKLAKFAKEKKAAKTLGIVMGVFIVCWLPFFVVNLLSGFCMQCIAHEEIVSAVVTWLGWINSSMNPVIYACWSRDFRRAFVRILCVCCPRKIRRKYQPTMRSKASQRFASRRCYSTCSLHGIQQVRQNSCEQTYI
Test [3] addresses T2, AaDOP2. Briefly: AaDOP2 antagonist screen of the LOPAC1280 library (HEK-CRELuc-Aadop2 cells, luminescence). The class given is cell-based. The following applies: for inhibition at 10 µM: read-out: % of the SCH23390 effect (percent inhibition of receptor response relative to the SCH23390 control).
Test [4] addresses T2, AaDOP2. The following applies: for Relative fold selectivity for AaDOP2 vs. hD1: from IC50 values at AaDOP2 and hD1.
Test [5] deals with Ae. aegypti L4-stage larvae (Liverpool strain). In words: whole plant or invertebrate. It is filed as in vivo, Aedes aegypti. As to conditions: for average mortality: single dose-point 400 µM, 24 hours post-treatment. The method, then:
Single dose-point and dose response in vivo mosquito bioassays were used to assess the toxicity of selected AaDOP2 receptor antagonists identified in the chemical screen. Larvae of Ae. aegypti (Liverpool strain) were reared under standard laboratory conditions on a 12 hr day/night cycle at 75% RH and 28°C, and bioassays were conducted at room temperature (22–24°C). Larvae were transferred from standard rearing trays into six-well tissue culture plates (Corning, Inc. Corning, NY) using a small plastic pipette. Ten L4-stage larvae were included per well, each containing five ml of de-ionized water and the assigned drug concentration. Controls were conducted similarly but lacked a drug treatment. Bioassays employed a double-blind experimental design, and percent mortality was scored 24 hr following administration of drugs. Single dose-point assays were conducted using 400 µM drug and included three biological replicates each consisting of 50–100 larvae. Dose-response assays were conducted using five doses (400, 200, 100, 50, and 25 µM) of the compounds suspended in water, with water alone as a control. Five technical replicates, each including 10 larvae, were performed per dose, and the assay was repeated three times.

In test [6] the target is T2, AaDOP2. In words: cell-based. This is another data set of the same source.
For test [7], the target named is T3, human D1 dopamine receptor (hD1) (Homo sapiens, UniProt P21728).
T3 construct: expressed in transfected cells
T3 sequence (P21728 whole entry): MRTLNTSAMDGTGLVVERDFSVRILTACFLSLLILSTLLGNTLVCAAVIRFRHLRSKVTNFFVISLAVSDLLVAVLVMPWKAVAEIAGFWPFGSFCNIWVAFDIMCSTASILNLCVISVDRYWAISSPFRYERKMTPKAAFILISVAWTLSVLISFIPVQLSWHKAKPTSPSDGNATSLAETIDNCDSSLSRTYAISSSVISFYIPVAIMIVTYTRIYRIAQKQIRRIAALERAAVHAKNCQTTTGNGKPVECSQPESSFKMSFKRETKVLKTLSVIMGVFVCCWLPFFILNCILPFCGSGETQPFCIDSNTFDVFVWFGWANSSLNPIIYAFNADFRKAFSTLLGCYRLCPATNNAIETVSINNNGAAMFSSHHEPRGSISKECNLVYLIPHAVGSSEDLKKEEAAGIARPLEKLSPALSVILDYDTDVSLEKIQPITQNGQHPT
Briefly: cAMP accumulation secondary assay, hD1-expressing cells. The class given is cell-based. On the technique in general: cAMP levels reflect the balance of adenylyl cyclase and phosphodiesterase activity.

Test [8] addresses T2, AaDOP2.
In test [9] the target is T1, AaDOP1. The following applies: single dose of dopamine 10 µM, n = 3.
Test [10] deals with T2, AaDOP2. As to conditions: single dose of dopamine 10 µM, n = 3.
Setting [11] is: HEK293 cells stably expressing CRELuc reporter and AaDOP1, read-out: EC50 values AaDOP1.
Setting [12] is: 10 µM SCH23390 in the presence of 1 µM dopamine.

SMILES strings stand for the structures. Counter-ions that a name gives are not always drawn. Like-named read-outs stand apart in the source and are kept apart here.

For the compound `Oc1cc2c(cc1O)[C@H]1c3ccccc3CN[C@@H]1CC2` (racemic) [Dihydrexidine, dihydrexidine], the EC50 came to 6.9 ± 1.5 nM on AaDOP1 [1] (setting [11]) and 290 ± 54 nM on AaDOP2 [2].

As to `CN(C)CCC=C1c2ccccc2CCc2ccccc21` [Compound 92, Amitriptyline hydrochloride], the “Compound effect (percent receptor signaling in presence of test compound, relative lux units relative to the SCH23390 control)” value at AaDOP2 [3] is on record as 10. Also, the inhibition at 10 µM at AaDOP2 [3] worked out at 90%. The “Relative fold selectivity for AaDOP2 vs. hD1” value is listed as 36 fold on AaDOP2 [4] (listed as Amitriptyline) and “more than 30 fold” on AaDOP2 [4] (listed as amitriptyline). For the same compound, in test [5] (Aedes aegypti, 24 h), the LC50 was 78000 nM. In [5] (dose-response 25-400 µM, 24 hr), this compound registered an LC90 of 185000 nM. The same compound returned an average mortality in test [5] of 93%. Further, the IC50 against AaDOP2 [6] was found to be 14 ± 3.4 nM; in [7], 470 ± 49 nM.

For `NC[C@H](O)c1ccc(O)c(O)c1` [Compound 106, L(-)-Norepinephrine bitartrate], the EC50 at AaDOP1 [1] is 760 ± 180 nM; at AaDOP2 [2], no less than 10000 nM. Further, the “Compound effect (percent receptor signaling in presence of test compound, relative lux units relative to the SCH23390 control)” value on AaDOP2 [3] is 115.

For the compound `CN(C)CCC=C1c2ccccc2COc2ccccc21` [Compound 386, Doxepin hydrochloride], the average mortality in [5] worked out at 72%.

Take `CN1CCc2cc(Cl)c(O)cc2[C@@H](c2ccccc2)C1` [Compound 446, R(+)-SCH-23390 hydrochloride]: on AaDOP1 [1] (setting [12]), the “inhibition of dopamine-mediated stimulation of AaDOP1” value is “robustly inhibited”. For the same compound, the “inhibition of dopamine-mediated stimulation of AaDOP2” value on AaDOP2 [8] (setting [12]) is “robustly inhibited”. Further, the inhibition at 10 µM on AaDOP2 [3] was determined as 83%. The compound also yielded a half-maximal inhibitory concentration (IC50) on AaDOP2 [6] of 1600 ± 73 nM.

The compound `CNC[C@H](O)c1ccc(O)c(O)c1` [Compound 491, (-)-Epinephrine bitartrate] gave an EC50 on AaDOP2 [2] of no less than 10000 nM.

On to `OCCN1CCN(CC/C=C2/c3ccccc3Sc3ccc(C(F)(F)F)cc32)CC1` [Compound 541, cis-(Z)-Flupenthixol dihydrochloride, reference compound], for which the inhibition at 10 µM on AaDOP2 [3] stood at 88%. For the same compound, it took 20 ± 5.4 nM to reach half-maximal inhibition against AaDOP2 [6] (IC50).

Turning to `NCCc1c[nH]cn1` [Compound 596, Histamine dihydrochloride], the EC50 was no less than 10000 nM at AaDOP1 [1] (HEK293 cells stably expressing CRELuc reporter and AaDOP1, ≥10 µM considered lacking intrinsic activity, read-out: EC50 values AaDOP1); no less than 10000 nM on AaDOP2 [2].

Compound `NCCc1ccc(O)c(O)c1` [Compound 603, Dopamine hydrochloride] displayed a concentration giving a half-maximal response (EC50) on AaDOP1 [1] of 3.1 ± 1.1 nM. Moreover, the “increase of intracellular cAMP” value on AaDOP1 [9] amounted to 2.7±0.6 fold; on AaDOP2 [10], 48±14 fold.

For `NCCc1c[nH]c2ccc(O)cc12` [Compound 613, Serotonin hydrochloride], the EC50 on AaDOP1 [1] and on AaDOP2 [2] was no less than 10000 nM in each case. Besides, the “Compound effect (percent receptor signaling in presence of test compound, relative lux units relative to the SCH23390 control)” value at AaDOP2 [3] came out at 110.

Take `O=C(Nc1ccc([N+](=O)[O-])cc1Cl)c1cc(Cl)ccc1O` [Compound 847, Niclosamide, reference compound]: at AaDOP2 [3], the “Compound effect (percent receptor signaling in presence of test compound, relative lux units relative to the SCH23390 control)” value is reported as 5 and the inhibition at 10 µM was 95%. The same compound had an IC50 against AaDOP2 [6] of no less than 10000 nM.

As to `Oc1cc(O)cc(/C=C/c2ccc(O)c(O)c2)c1` [Compound 916, Piceatannol, reference compound], on AaDOP2 [3], the “Compound effect (percent receptor signaling in presence of test compound, relative lux units relative to the SCH23390 control)” value is reported as 2 and the inhibition at 10 µM was found to be 98%. Further, the IC50 against AaDOP2 [6] was no less than 10000 nM.

With `Oc1ccc(/C=C/c2cc(O)cc(O)c2)cc1` [Compound 1048, Resveratrol, reference compound], on AaDOP2 [3], the “Compound effect (percent receptor signaling in presence of test compound, relative lux units relative to the SCH23390 control)” value turned out to be 11 and the inhibition at 10 µM came to 89%. This compound also registered a 50% inhibitory concentration (IC50) on AaDOP2 [6] of no less than 10000 nM.

Consider `NCCc1ccc(O)cc1` [Compound 1162, 4-Hydroxyphenethylamine hydrochloride], for which the 50% effective concentration (EC50) on AaDOP1 [1] and on AaDOP2 [2] was no less than 10000 nM each time.

For `CSc1ccc2c(c1)C(N1CCN(C)CC1)Cc1ccccc1S2.O=C(O)/C=C\C(=O)O` (stereo not drawn) [Methiothepin, methiothepin maleate], on AaDOP2 [4], the “Relative fold selectivity for AaDOP2 vs. hD1” value is recorded as 5.7 fold. Further, the IC50 stood at 14 ± 5.1 nM on AaDOP2 [4] (read-out: IC50 value (at 3 µM dopamine for AaDOP2), 3 µM dopamine, cAMP accumulation) and 80 ± 11 nM in test [7] (read-out: IC50 value (at 100 nM dopamine for hD1), 100 nM dopamine, cAMP accumulation).

Regarding `Oc1cc2c(cc1O)C(c1ccccc1)CNCC2` (stereo not drawn) [SKF 38393], the EC50 was 310 ± 46 nM at AaDOP1 [1] (setting [11]) and no less than 10000 nM on AaDOP2 [2].

`Oc1cc2c(c(Cl)c1O)CCNCC2c1ccccc1` (stereo not drawn) [SKF 81297]: the concentration giving a half-maximal response (EC50) was 24 ± 7 nM on AaDOP1 [1] (setting [11]); no less than 10000 nM at AaDOP2 [8] (read-out: EC50 values AaDOP2, HEK293 cells stably expressing CRELuc reporter and AaDOP2, ≥10 µM considered lacking intrinsic activity).
